Activity calls are given as the source filed them. The calls are words filed in the database; no cut-off is given here.

Series [1] relates to N2a. The series can be described thus: Induction of neurite outgrowth in mouse Neuro2a cells assessed as increase in GAP43 protein expression at 25 uM incubated for 24 hrs by immunoblotting analysis. In kind it is functional, cell-based.
Series [2] is described as follows: Cytotoxicity against mouse Neuro2a cells assessed as inhibition of cell growth incubated for 24 hrs by MTT assay. In kind it is toxicity, cell-based, N2a. On the technique in general: Tetrazolium assays rely on reduction of a dye to a coloured formazan, in cell work by metabolically active cells.
Series [3] deals with N2a. The series can be described thus: Induction of neurite outgrowth in mouse Neuro2a cells assessed as increase in neurite-length per cells at 25 uM incubated for 24 hrs. In kind it is functional, cell-based.
For series [4], the system named is N2a. The series can be described thus: Induction of neurite outgrowth in mouse Neuro2a cells assessed as increase in neurite-number per cells at 25 uM incubated for 24 hrs. In kind it is functional, cell-based.
The test system of series [5] is N2a. The series can be described thus: Induction of neurite outgrowth in mouse Neuro2a cells assessed as increase in percentage of neurite-bearing cells at 25 uM incubated for 24 hrs. In kind it is functional, cell-based.

On to `CCCCCCCC/C=C/CCCCCCCC(=O)N[C@@H](CO[C@@H]1O[C@H](CO)[C@@H](O[C@@H]2O[C@H](CO)[C@H](O[C@@H]3O[C@H](CO)[C@H](O)[C@H](O[C@@H]4O[C@H](CO)[C@H](O)[C@H](O)[C@H]4O)[C@H]3NC(C)=O)[C@H](O[C@]3(C(=O)O)C[C@H](O)[C@@H](NC(C)=O)[C@@H]([C@@H](O)[C@H](O)CO)O3)[C@H]2O)[C@H](O)[C@H]1O)[C@H](O)/C=C/CCCCCCCCCCCCCCC`, for which the outcome in series [1] was Active. Further, in series [2], the IC50 at 24 h was more than 200 µM.
As to `CCCC/C=C\CCCCCCCC(=O)N[C@@H](CO[C@@H]1O[C@H](CO)[C@@H](O[C@@H]2O[C@H](CO)[C@H](O[C@@H]3O[C@H](CO)[C@H](O)[C@H](O[C@@H]4O[C@H](CO)[C@H](O)[C@H](O)[C@H]4O)[C@H]3NC(C)=O)[C@H](O[C@]3(C(=O)O)C[C@H](O)[C@@H](NC(C)=O)[C@@H]([C@@H](O)[C@H](O)CO)O3)[C@H]2O)[C@H](O)[C@H]1O)[C@H](O)/C=C/CCCCCCCCCCCCC`, in series [2], the IC50 at 24 h was less than 25 µM.
In the case of `CCCCCC/C=C\CCCC(=O)N[C@@H](CO[C@@H]1O[C@H](CO)[C@@H](O[C@@H]2O[C@H](CO)[C@H](O[C@@H]3O[C@H](CO)[C@H](O)[C@H](O[C@@H]4O[C@H](CO)[C@H](O)[C@H](O)[C@H]4O)[C@H]3NC(C)=O)[C@H](O[C@]3(C(=O)O)C[C@H](O)[C@@H](NC(C)=O)[C@@H]([C@@H](O)[C@H](O)CO)O3)[C@H]2O)[C@H](O)[C@H]1O)[C@H](O)/C=C/CCCCCCCCCCCCC`, in series [2], the IC50 at 24 h was less than 25 µM.
Same read-out and setting: for `CCCCCCCCCCCCCCC/C=C/[C@@H](O)[C@H](CO[C@@H]1O[C@H](CO)[C@@H](O[C@@H]2O[C@H](CO)[C@H](O[C@@H]3O[C@H](CO)[C@H](O)[C@H](O[C@@H]4O[C@H](CO)[C@H](O)[C@H](O)[C@H]4O)[C@H]3NC(C)=O)[C@H](O[C@]3(C(=O)O)C[C@H](O)[C@@H](NC(C)=O)[C@@H]([C@@H](O)[C@H](O)CO)O3)[C@H]2O)[C@H](O)[C@H]1O)NC(=O)CCCCCCCCCCCCCCCCC` the value was more than 200 µM.
Turning to `CCCCCCCC/C=C\CCCCCCCC(=O)N[C@@H](CO[C@@H]1O[C@H](CO)[C@@H](O[C@@H]2O[C@H](CO)[C@H](O[C@@H]3O[C@H](CO)[C@H](O)[C@H](O[C@@H]4O[C@H](CO)[C@H](O)[C@H](O)[C@H]4O)[C@H]3NC(C)=O)[C@H](O[C@]3(C(=O)O)C[C@H](O)[C@@H](NC(C)=O)[C@@H]([C@@H](O)[C@H](O)CO)O3)[C@H]2O)[C@H](O)[C@H]1O)[C@H](O)/C=C/CCCCCCCCCCCCC`, the result in series [3], in series [4], in series [5] and in series [1] was Active. Also, the IC50 at 24 h in series [2] was more than 200 µM.
With `CCCCCC/C=C\CCCCCCCC(=O)N[C@@H](CO[C@@H]1O[C@H](CO)[C@@H](O[C@@H]2O[C@H](CO)[C@H](O[C@@H]3O[C@H](CO)[C@H](O)[C@H](O[C@@H]4O[C@H](CO)[C@H](O)[C@H](O)[C@H]4O)[C@H]3NC(C)=O)[C@H](O[C@]3(C(=O)O)C[C@H](O)[C@@H](NC(C)=O)[C@@H]([C@@H](O)[C@H](O)CO)O3)[C@H]2O)[C@H](O)[C@H]1O)[C@H](O)/C=C/CCCCCCCCCCCCCCC`, the result in series [3], in series [4] and in series [5] was Active. Further, the concentration for half-maximal inhibition (IC50) at 24 h in series [2] is more than 200 µM.
With `CCCCCC/C=C\CCCCCCCC(=O)N[C@@H](CO[C@@H]1O[C@H](CO)[C@@H](O[C@@H]2O[C@H](CO)[C@H](O[C@@H]3O[C@H](CO)[C@H](O)[C@H](O[C@@H]4O[C@H](CO)[C@H](O)[C@H](O)[C@H]4O)[C@H]3NC(C)=O)[C@H](O[C@]3(C(=O)O)C[C@H](O)[C@@H](NC(C)=O)[C@@H]([C@@H](O)[C@H](O)CO)O3)[C@H]2O)[C@H](O)[C@H]1O)[C@H](O)/C=C/CCCCCCCCCCCCC`, the result in series [3], in series [4] and in series [5] was Active.

For orientation: IC50 means the concentration needed to halve the response being measured.

(Values after ChEMBL document CHEMBL5108016, “Design, synthesis and neurite outgrowth activity of novel ganglioside GM1 derivatives by remodeling of the fatty acid moiety” (Eur J Med Chem, 2022).)
